Test results reported in the Kinase Knowledgebase extract (Sharma et al. 2016).

Target: ROCK2 (human) (UniProt O75116)
Test: Inhibition of ROCK2 Kinase Activity

Chain of ROCK2 (human) (O75116 whole entry, looked up): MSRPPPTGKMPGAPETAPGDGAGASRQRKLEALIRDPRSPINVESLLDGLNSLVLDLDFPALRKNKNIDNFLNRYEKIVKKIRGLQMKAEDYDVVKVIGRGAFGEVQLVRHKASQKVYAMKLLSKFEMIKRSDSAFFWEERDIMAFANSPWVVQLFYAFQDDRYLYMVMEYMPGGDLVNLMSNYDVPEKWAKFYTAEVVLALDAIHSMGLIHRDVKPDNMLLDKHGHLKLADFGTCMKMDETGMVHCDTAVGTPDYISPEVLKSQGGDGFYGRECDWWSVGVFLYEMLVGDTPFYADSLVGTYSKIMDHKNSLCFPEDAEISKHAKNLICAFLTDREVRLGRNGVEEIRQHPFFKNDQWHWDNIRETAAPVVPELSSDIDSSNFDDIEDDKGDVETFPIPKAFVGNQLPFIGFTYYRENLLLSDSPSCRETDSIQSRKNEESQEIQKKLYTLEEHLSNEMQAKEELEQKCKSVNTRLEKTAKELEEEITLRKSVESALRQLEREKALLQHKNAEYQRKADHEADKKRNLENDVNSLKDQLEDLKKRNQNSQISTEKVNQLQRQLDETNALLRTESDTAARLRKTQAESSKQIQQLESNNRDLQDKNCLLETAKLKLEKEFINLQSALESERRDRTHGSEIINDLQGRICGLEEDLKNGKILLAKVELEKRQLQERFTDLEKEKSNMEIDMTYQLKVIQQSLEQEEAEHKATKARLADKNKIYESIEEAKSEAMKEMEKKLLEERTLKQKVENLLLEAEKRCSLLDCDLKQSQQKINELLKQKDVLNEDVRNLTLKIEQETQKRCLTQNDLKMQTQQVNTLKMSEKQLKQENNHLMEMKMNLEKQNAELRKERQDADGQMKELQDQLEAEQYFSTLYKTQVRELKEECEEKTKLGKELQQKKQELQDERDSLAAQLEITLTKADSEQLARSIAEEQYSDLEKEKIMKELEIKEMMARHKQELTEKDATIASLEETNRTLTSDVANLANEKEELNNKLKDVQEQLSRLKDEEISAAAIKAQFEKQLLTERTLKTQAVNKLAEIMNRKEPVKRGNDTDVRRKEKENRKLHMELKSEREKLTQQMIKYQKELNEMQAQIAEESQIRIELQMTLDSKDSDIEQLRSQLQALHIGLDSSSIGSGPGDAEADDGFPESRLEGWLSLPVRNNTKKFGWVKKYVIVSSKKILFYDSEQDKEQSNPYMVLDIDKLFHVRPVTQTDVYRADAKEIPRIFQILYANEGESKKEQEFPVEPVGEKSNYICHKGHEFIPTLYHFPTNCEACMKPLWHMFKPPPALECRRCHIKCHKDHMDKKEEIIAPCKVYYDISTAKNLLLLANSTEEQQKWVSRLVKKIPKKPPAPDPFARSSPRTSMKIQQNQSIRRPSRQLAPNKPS

SMILES	IC50 [µM]
COC(=O)c1ccc(C(=O)NCc2nc(-c3ccncc3)n[nH]2)cc1	≤ 5
Cc1cc(C(=O)NCc2nc(-c3ccncc3)n[nH]2)ccc1Br	> 5
O=C(NCc1nc(-c2ccncc2)n[nH]1)c1ccc(Cl)c([N+](=O)[O-])c1	> 5
COc1cc(Cl)ccc1C(=O)NCc1nc(-c2ccncc2)n[nH]1	> 5
CC(C)(C)OC(=O)NCC[C@H](NC(=O)c1ccc(O)cc1O)c1nc(-c2ccncc2)n[nH]1	≤ 5
CC(C)(C)OC(=O)N1Cc2ccccc2CC1C(=O)NCc1nc(-c2c[nH]c3ncccc23)n[nH]1 (centres undefined)	> 5
CC(C)(C)OC(=O)NC1CCN(C(=O)Cc2nc(-c3ccncc3)n[nH]2)C1 (centres undefined)	> 5
COc1cc(OC)c(C(=O)NCc2nc(-c3ccncc3)n[nH]2)cc1OC	> 5
O=C(NCc1nc(-c2ccncc2)n[nH]1)c1cccc2cc[nH]c12	≤ 5
O=C(NCc1nc(-c2c[nH]c3ncccc23)n[nH]1)c1c2ccccc2cc2ccccc12	> 5
O=C(NCc1nc(-c2ccncc2)n[nH]1)c1cc(Cl)ccc1Cl	> 5
O=C(NCc1nc(-c2ccncc2)n[nH]1)c1cc(Br)ccc1Cl	> 5
CN(C=O)c1ccc(C(=O)NCc2nc(-c3c[nH]c4ncccc34)n[nH]2)cc1	> 5
CC(C)(C)C(=O)NCc1nc(-c2c[nH]c3ncccc23)n[nH]1	> 5
O=Cc1ccc(C(=O)NCc2nc(-c3c[nH]c4ncccc34)n[nH]2)cc1	> 5
CC(=O)Oc1ccccc1C(=O)NCc1nc(-c2c[nH]c3ncccc23)n[nH]1	> 5
Cc1nc(Br)sc1C(=O)NCc1nc(-c2c[nH]c3ncccc23)n[nH]1	> 5

SMILES	IC50 [µM]
COc1ccc(O)c(C(=O)NCc2nc(-c3c[nH]c4ncccc34)n[nH]2)c1	> 5
O=C(NCc1nc(-c2c[nH]c3ncccc23)n[nH]1)c1ccc(Oc2cccc(O)c2)cc1	> 5
Cc1cccc([N+](=O)[O-])c1C(=O)NCc1nc(-c2ccncc2)n[nH]1	> 5
CCCCCc1ccc(C(=O)NCc2nc(-c3ccncc3)n[nH]2)cc1	> 5
COc1cc(C(=O)NCc2nc(-c3c[nH]c4ncccc34)n[nH]2)cc(Cl)n1	> 5
CC(C)c1ccc(C(=O)NCc2nc(-c3c[nH]c4ncccc34)n[nH]2)cc1	> 5
O=C(NCc1nc(-c2c[nH]c3ncccc23)n[nH]1)c1cccc(Cl)c1[N+](=O)[O-]	> 5
O=C(NCc1nc(-c2c[nH]c3ncccc23)n[nH]1)c1ccccc1Cc1ccccc1	> 5
O=Cc1ccccc1OCC(=O)NCc1nc(-c2ccncc2)n[nH]1	> 5
Cc1ccc(C(=O)NCc2nc(-c3ccncc3)n[nH]2)s1	≤ 5
COc1ccc(C(=O)NCc2nc(-c3ccncc3)no2)cc1	> 5
CC(C)(C)OC(=O)NCCCC(NC(=O)c1ccc(O)cc1O)c1nc(-c2ccncc2)n[nH]1 (centres undefined)	≤ 5
CC(C(=O)NCc1nc(-c2ccncc2)n[nH]1)c1ccc(O)cc1 (centres undefined)	> 5
CC(C)(C)OC(=O)NCC(=O)NCc1nc(-c2ccncc2)n[nH]1	> 5
CCOc1ccccc1C(=O)NCc1nc(-c2c[nH]c3ncccc23)n[nH]1	> 5
O=C(NCc1nc(-c2ccncc2)n[nH]1)c1ccc(CO)cc1	≤ 5
COc1ccc(OC)c(C(=O)NCc2nc(-c3c[nH]c4ncccc34)n[nH]2)c1	> 5
